tested on: Kras (G12D) transformed pancreatic cancer cells (4039); assay: Cell growth in tissue culture over a four-day period; assay type: cell-based; settings: 40 μM, Kras (G12D) cells 4039, FIG. 1
Procedure: Kras (G12D) transformed pancreatic cancer cells (4039) and wild-type Kras expressing pancreatic cancer cells (4037) were each exposed to 40 μM of NSC-70220. Cell growth in the tissue culture was monitored by assays over a four-day period.

Compound | inhibition of cell growth
O=[N+]([O-])c1ccccc1/C=C/C=C1c2ccccc2-c2ccccc21 [NSC-70220] | selectively inhibits

tested on: ERK activation of oncogenic Kras (G12D) pancreatic cancer cells; assay: ERK activation by Western blotting of p-ERK, total ERK; assay type: cell-based; settings: Western blot, FIGS. 2A and 2B

Compound | inhibition of ERK activation
O=[N+]([O-])c1ccccc1/C=C/C=C1c2ccccc2-c2ccccc21 [NSC-70220] | selectively inhibits ERK activation

tested on: oncogenic Kras (G12C) transformed pancreatic MIA-PaCa-2 cells; assay: Cell growth of treated cells; assay type: cell-based; settings: Kras (G12C) MIA-PaCa-2 cells, FIGS. 3-5
Procedure: FIGS. 3-5 show data from experiments in which oncogenic Kras (G12C) transformed pancreatic MIA-PaCa-2 cells were treated with NSC-70220, and an experiment in which wild-type Kras expressing pancreatic BxPC-3 ductal cells were treated with NSC-70220.

Compound | inhibition of growth
O=[N+]([O-])c1ccccc1/C=C/C=C1c2ccccc2-c2ccccc21 [NSC-70220] | selectively inhibits growth

tested on: Mononuclear bone marrow cells harvested from Kras G12D/+ mice; assay: CellTiter-Glo Luminescent Cell Viability Assay (growth inhibitory assay); assay type: cell-based; settings: Mus musculus, 48 h, 40 μM compound, two days of incubation, percentage of cells still alive at the end of the experiment, read-out: 40 μM (% Residual Activity)
Procedure: Mononuclear bone marrow cells harvested from Kras G12D/+ mice were tested for proliferation in a CellTiter-Glo® Luminescent Cell Viability Assay by Promega (Madison, Wis.) carried out by following the instructions provided by the manufacturer in the presence of 40 μM of 176 selected test compounds. […] The structures of these active compounds are shown in Table 1, along with the percentage of residual activity after two days of incubation with 40 μM of the compound. The residual activity is the percentage of cells that were still alive at the end of the experiment.

Compound | activity at 40 µM [%]
O=C(NNC(=O)c1ccccc1C(=O)O)c1ccccc1O [Compound 473089] | 13
O=C(C(=Cc1ccccc1[N+](=O)[O-])C(=O)c1ccccc1)c1ccccc1 [Compound 526470] | 15
O=C(/C=C(\O)C(F)(F)/C(O)=C/C(=O)c1ccccc1)c1ccccc1 [Compound 387846] | 9
C=CCc1ccc(/C=N/NC(=O)c2ccccc2O)cc1O [Compound 290794] | 2
O=C(N/N=C(/C=C/c1ccccc1)c1ccccc1)c1ccccc1O [Compound 121366] | 12
O=C(N/N=C/c1ccc(OCc2ccccc2)cc1)c1cccc(F)c1 [Compound 377247] | 11
Cc1cc(C)c2oc(-c3ccc(C)c(/N=C/C=C/c4ccc(Br)c([N+](=O)[O-])c4)c3)nc2c1 [Compound 312987] | 8
O=C(NC(=S)NNC(=O)c1ccccc1O)c1ccc(-c2ccccc2)cc1 [Compound 390481] | 10
O=C(N/N=C/c1ccc(O)c(O)c1)c1ccc(-c2ccccc2)cc1 [Compound 377089] | 6
O=C(/C=C/c1ccc(/C=C/C(=O)c2ccc(O)cc2)cc1)c1ccc(O)cc1 [Compound 511128] | 1
COc1ccc(C=C2c3ccccc3-c3ccccc32)cc1 [Compound 262294] | 13
O=C(/C=C/c1ccccc1[N+](=O)[O-])c1ccco1 [Compound 775432] | 0
O=C(NC(=S)Nc1ccccc1O)c1ccc(-c2ccccc2)cc1 [Compound 920300] | 12
O=C(NCc1ccccc1)/C(=C/C=C\c1ccccc1)NC(=O)c1ccccc1 [Compound 127987] | 5
O=C(N/N=C/c1ccc2ccccc2c1)c1ccccc1O [Compound 393689] | 11
O=C(N/N=C/c1ccc(O)c(Br)c1)c1cc(Br)ccc1O [Compound 394392] | 3
O=C(N/N=C/C=C/c1ccc([N+](=O)[O-])o1)c1ccccc1O [Compound 388883] | 1
O=C(Nc1cc(Cl)ccc1O)c1ccc(Cl)c(C(=O)c2ccc(Cl)cc2)c1 [Compound 773778] | 8
O=C(Nc1ccccc1C(=O)O)c1ccc([N+](=O)[O-])cc1 [Compound 114395] | 16
O=[N+]([O-])c1ccccc1/C=C/C=C1c2ccccc2-c2ccccc21 [NSC-70220] | 12 to 15
O=[N+]([O-])c1ccc(C=C(c2nc3ccccc3s2)c2nc3ccccc3s2)cc1 [Compound 408776] | 12

From patent publication US20210338694A1, “SOS1 ALLOSTERIC SITE TARGETING” (priority 2020, published 2021)
